Test results taken from the supplement of paper PMC10883282.
± gives the standard deviation of the averaged measurements.

Experiments:
Assay in all cases: relative viability vs DMSO control (72 h) (fraction); higher = more viable cells
[1] = system: HT1080
How it was run: (§1)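 Sarcoma cell lines were seeded in 384-well plates at densities set to reach 80–90% confluence. After 24 h, 2.5 µl of serially diluted compound was added (source plates 10 mM to 0.0002 mM), and plates were held 72 h at 37 °C, 5% CO2, with 0.1% DMSO vehicle and a 5 µM positive control. Relative viability came from ATPLite readings as percent growth, averaged over up to triplicate wells. Data were rescaled so full viability equals 1 and none equals 0.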

[2] = system: KHOS-NP
How it was run: as §1

[3] = system: SK-ES-1
How it was run: as §1

[4] = system: RD-ES
How it was run: as §1

[5] = system: SW982
How it was run: as §1

[6] = system: KHOS-240S
How it was run: as §1

[7] = system: G401
How it was run: as §1

[8] = system: A204
How it was run: as §1

[9] = system: SW1353
How it was run: as §1

[10] = system: SW872
How it was run: as §1

[11] = system: SYO-1
How it was run: as §1

[12] = system: SW684
How it was run: as §1

COCCNc1cc(NC(=O)N2CCCc3cc(CN4CCN(C)CC4=O)c(C=O)nc32)ncc1C#N [Roblitinib]
Settings	relative viability
[1], 0.00017 µM	1 ± 0.018
[1], 0.00051 µM	1.04 ± 0.014
[1], 0.00152 µM	0.971 ± 0.013
[1], 0.00457 µM	0.9973 ± 0.0052
[1], 0.01372 µM	0.951 ± 0.034
[1], 0.04115 µM	1.04 ± 0.04
[1], 0.1235 µM	1.05 ± 0.072
[1], 0.3704 µM	1.07 ± 0.033
[1], 1.111 µM	0.952 ± 0.022
[1], 3.333 µM	1.029 ± 0.0021
[1], 10 µM	0.997 ± 0.052
[2], 0.00017 µM	1.05 ± 0.019
[2], 0.00051 µM	1.03 ± 0.029
[2], 0.00152 µM	1.04 ± 0.026
[2], 0.00457 µM	1.04 ± 0.015
[2], 0.01372 µM	1.05 ± 0.037
[2], 0.04115 µM	1.04 ± 0.027
[2], 0.1235 µM	1.06 ± 0.034
[2], 0.3704 µM	1.05 ± 0.017
[2], 1.111 µM	1.05 ± 0.035
[2], 3.333 µM	1.04 ± 0.049
[2], 10 µM	1.02 ± 0.038
[3], 0.00017 µM	0.964 ± 0.035
[3], 0.00051 µM	0.979 ± 0.019
[3], 0.00152 µM	0.986 ± 0.023
[3], 0.00457 µM	0.974 ± 0.022
[3], 0.01372 µM	1.03 ± 0.032
[3], 0.04115 µM	0.973 ± 0.032
[3], 0.1235 µM	1.02 ± 0.047
[3], 0.3704 µM	0.985 ± 0.026
[3], 1.111 µM	0.92 ± 0.015
[3], 3.333 µM	0.916 ± 0.019
[3], 10 µM	0.74 ± 0.018
[4], 0.00017 µM	0.972 ± 0.016
[4], 0.00051 µM	0.981 ± 0.023
[4], 0.00152 µM	0.986 ± 0.033
[4], 0.00457 µM	0.965 ± 0.03
[4], 0.01372 µM	0.968 ± 0.025
[4], 0.04115 µM	0.9621 ± 0.0066
[4], 0.1235 µM	0.958 ± 0.027
[4], 0.3704 µM	0.952 ± 0.03
[4], 1.111 µM	0.936 ± 0.019
[4], 3.333 µM	0.884 ± 0.037
[4], 10 µM	0.867 ± 0.059
[5], 0.00017 µM	1.013 ± 0.0057
[5], 0.00051 µM	0.995 ± 0.019
[5], 0.00152 µM	0.991 ± 0.02
[5], 0.00457 µM	1.03 ± 0.04
[5], 0.01372 µM	0.992 ± 0.016
[5], 0.04115 µM	1.03 ± 0.051
[5], 0.1235 µM	0.992 ± 0.018
[5], 0.3704 µM	1.03 ± 0.04
[5], 1.111 µM	1.03 ± 0.023
[5], 3.333 µM	1.01 ± 0.065
[5], 10 µM	0.9846 ± 0.0093
[6], 0.00017 µM	1.04 ± 0.029
[6], 0.00051 µM	1.04 ± 0.032
[6], 0.00152 µM	1.026 ± 0.0035
[6], 0.00457 µM	1.04 ± 0.021
[6], 0.01372 µM	1.02 ± 0.019
[6], 0.04115 µM	1.03 ± 0.0099
[6], 0.1235 µM	1.035 ± 0.0076
[6], 0.3704 µM	1.03 ± 0.028
[6], 1.111 µM	1 ± 0.017
[6], 3.333 µM	0.963 ± 0.034
[6], 10 µM	0.967 ± 0.055
[7], 0.00017 µM	0.974 ± 0.018
[7], 0.00051 µM	0.955 ± 0.034
[7], 0.00152 µM	0.929 ± 0.012
[7], 0.00457 µM	0.9122 ± 0.0064
[7], 0.01372 µM	0.943 ± 0.012
[7], 0.04115 µM	0.93 ± 0.036
[7], 0.1235 µM	0.96 ± 0.047
[7], 0.3704 µM	0.967 ± 0.069
[7], 1.111 µM	0.943 ± 0.033
[7], 3.333 µM	0.935 ± 0.038
[7], 10 µM	0.8671 ± 0.0083
[8], 0.00017 µM	1.05 ± 0.011
[8], 0.00051 µM	1.09 ± 0.059
[8], 0.00152 µM	1.03 ± 0.044
[8], 0.00457 µM	1.08 ± 0.018
[8], 0.01372 µM	1.06 ± 0.027
[8], 0.04115 µM	1.07 ± 0.056
[8], 0.1235 µM	1.04 ± 0.057
[8], 0.3704 µM	1.02 ± 0.045
[8], 1.111 µM	1.03 ± 0.061
[8], 3.333 µM	0.922 ± 0.05
[8], 10 µM	0.812 ± 0.014
[9], 0.00017 µM	0.959 ± 0.041
[9], 0.00051 µM	0.935 ± 0.031
[9], 0.00152 µM	0.899 ± 0.032
[9], 0.00457 µM	0.95 ± 0.067
[9], 0.01372 µM	0.953 ± 0.032
[9], 0.04115 µM	0.953 ± 0.029
[9], 0.1235 µM	0.942 ± 0.036
[9], 0.3704 µM	0.958 ± 0.033
[9], 1.111 µM	0.922 ± 0.027
[9], 3.333 µM	0.949 ± 0.014
[9], 10 µM	0.961 ± 0.014
[10], 0.00017 µM	0.926 ± 0.028
[10], 0.00051 µM	0.924 ± 0.054
[10], 0.00152 µM	0.968 ± 0.065
[10], 0.00457 µM	0.951 ± 0.052
[10], 0.01372 µM	0.939 ± 0.02
[10], 0.04115 µM	0.963 ± 0.061
[10], 0.1235 µM	0.921 ± 0.015
[10], 0.3704 µM	0.977 ± 0.042
[10], 1.111 µM	0.9644 ± 0.0077
[10], 3.333 µM	0.974 ± 0.047
[10], 10 µM	0.988 ± 0.012
[11], 0.00017 µM	0.933 ± 0.019
[11], 0.00051 µM	0.931 ± 0.022
[11], 0.00152 µM	0.9221 ± 0.0044
[11], 0.00457 µM	0.92 ± 0.03
[11], 0.01372 µM	0.914 ± 0.049
[11], 0.04115 µM	0.889 ± 0.022
[11], 0.1235 µM	0.879 ± 0.036
[11], 0.3704 µM	0.855 ± 0.059
[11], 1.111 µM	0.867 ± 0.052
[11], 3.333 µM	0.845 ± 0.061
[11], 10 µM	0.87 ± 0.099
[12], 0.00017 µM	1.1 ± 0.018
[12], 0.00051 µM	1.09 ± 0.054
[12], 0.00152 µM	1.08 ± 0.037
[12], 0.00457 µM	1.03 ± 0.038
[12], 0.01372 µM	1.04 ± 0.069
[12], 0.04115 µM	1.05 ± 0.056
[12], 0.1235 µM	1.09 ± 0.043
[12], 0.3704 µM	1.08 ± 0.018
[12], 1.111 µM	1.13 ± 0.082
[12], 3.333 µM	1.09 ± 0.068
[12], 10 µM	1.02 ± 0.012
